{
  "source": "patent US20140378472A1",
  "about": "“AMORPHOUS VILAZODONE HYDROCHLORIDE, A PROCESS FOR ITS PREPARATION AND PHARMACEUTICAL COMPOSITIONS THEREOF” (RANBAXY LABORATORIES LIMITED, priority 2011, published 2014)",
  "assay": "storage stability of the amorphous form, followed by XRPD",
  "assay_type": "physicochemical",
  "details": "storage at 25° C. and 52% relative humidity (RH) for 24 days; XRPD pattern similar to FIG. 5 (sample of Example 3)",
  "procedure": "XRPD of the samples were determined by using a Panalytical X'Pert Pro X-Ray Powder Diffractometer in the range 3-40 degree 2 theta and under a tube voltage and current of 45 Kv and 40 mA, respectively. Copper radiation of wavelength 1.54 angstrom and Xceletor detector was used.",
  "data": [
    {"smiles": "Cl.N#Cc1ccc2[nH]cc(CCCCN3CCN(c4ccc5oc(C(N)=O)cc5c4)CC3)c2c1", "note": "[amorphous vilazodone hydrochloride, 5-{4-[4-(5-cyano-1H-indo1-3-yl)butyl]piperazin-1-yl}-1-benzofuran-2-carboxamide hydrochloride]", "values": [
      {"measurement": "polymorphic stability on storage (XRPD)", "result": "stable and does not convert to any other polymorphic form"}
    ]}
  ]
}
